{
  "source": "patent US5731160A",
  "about": "“Induction of antigen specific T-lymphocyte responses by stimulation with peptide loaded MHC class I molecules on antigen processing defective mammalian cell lines” (Rijksuniversiteit Leiden, priority 1992, dated 1998)",
  "key": {"T2 cells": {"system": "T2 cells", "assay": "51Cr release cytotoxicity assay of p53 peptide specific CTL clones on peptide loaded T2 target cells", "assay_type": "cell-based, human", "settings": "peptide titration", "description": "As target cells served T2 cells, labeled with 100 μCi ^51 Cr for 1 h at 37° C. […] The target cells were washed once more before adding them to the effector cells. Effector target ratio ranged from 20:1 to 2.5:1 in twofold dilution. […] Total duration of the incubation time was 4 h at 37° C.\nThe percentage ^51 Cr release was calculated by the formula: [formula] 7. Cloning of CTL by limiting dilution\nThe clones were tested for specificity on peptide loaded ^51 Cr labeled target cells ranging from E/T 20 to E/T 2.5 in twofold dilution steps."}, "174CEM.T2 cells": {"system": "174CEM.T2 cells", "assay": "Primary CTL response induction with p53 peptide loaded 174CEM.T2 cells and HLA-A2.1 positive PBL", "assay_type": "cell-based, human", "settings": "PBL from healthy non-immunized HLA-A2.1 positive donor; peptide 80 μg/ml", "description": "174CEM.T2 (T2) cells in a concentration of 2×10^6 per ml were incubated for 13 hours at 37° C. in a T25 flask (Falcon, Becton & Dickinson, Plymouth, England, cat. no. 3013) in serum-free Iscove's medium (Biochrom KG, Seromed, Berlin, Gemany, cat. no. F0465) with glutamine (2 mM, ICN Biochemicals Inc., Costa Mes, Calif., U.S.A., cat. no. 15-801-55) and antibiotics as mentioned under 2 and p53 peptide at a final concentration of 80 μg/ml. Subsequently the T2 cells were spun down and treated at a density of 20×10^6 cells/ml with Mitomycin C (final concentration 50 μg/ml) in serum-free RPMI 1640 (manufacturer see 2) medium during one hour at 37° C. Thereafter the T2 cells were washed three times im RPMI 1640. Primary CTL responses were induced by filling all wells of a 96-well-U-bottom plate (Costar, Cambridge, Mass., U.S.A., cat. no. 3799) with 1×10^5 Mitomycin-C treated T2 cells in 50 μl of medium (serum-free RPMI 1640 containing glutamine and antibiotics as mentioned before), containing peptide at a concentration of 80 μg/ml. To these stimulator cells were added 4×10^5 HLA-A2.1 positive PBL in 50 μl of medium to each well. Stimulator and responder cells were cocultured for 7 days at 37° C. in an humidified incubator (90% humidity) and 5% CO2 in air.\nOn days 7 and 14 after primary response induction (see 5) the PBL (responder cells) were restimulated with peptide. […]"}, "RMA-S cells": {"system": "RMA-S cells", "assay": "Induction of primary CTL responses in vitro with peptide-loaded RMA-S cells", "assay_type": "cell-based, murine", "settings": "for Induction of primary CTL response by peptide-loaded RMA-S cells: NWP SC of unprimed B6 mice, 5-day culture, RMA-S as stimulator cells", "description": "(§1) RMA-S or RMA cells were pre-cultured for 36 h at 22° C. or 37° C. in IMDM medium supplemented with 2% human pooled serum, penicillin (100 IU/ml), kanamycin (100 μg/ml), S and 2-ME (2×10^-5 M). […] Without further washing these (peptide-loaded) RMA-S cells were incubated 1:1(v/v) with C57BL/6 nylon wool-passed spleen cells (B6 NWP SC) in 24-well culture plates: 4×10^6 responder cells and 1×10^6 stimulator cells in 1 ml of culture medium per well in IMDM medium supplemented with 10% FCS, penicillin (100 IU/ml), kanamycin (100 μg/ml), and 2-ME(2×10^-5 M). For a primary CTL response NWP SC of non-immunized C57BL/6 mice were used.\n(§2) After 5 days of culture the effectors were harvested on a lymphoprep (Nycomed Pharma, Oslo, Norway) gradient and tested for cytotoxic function on 2000 ^51 Cr-labeled target cells ranging from E/T 50 to E/T 0.8 in twofold dilution steps. The percentage specific ^51 Cr release was calculated by the formula: [formula]\nBackground (medium) release was always <25% of maximal (2% Triton X-100) release. The SE of triplicate culture was always <5% specific ^51 Cr release. Cytolytic activity calculated from individual dose-response curves is expressed as lytic units per 10^6 effector cells. Calculations were performed using linear regression. As target cells served: B6 mouse embryo cells, treated for 2 days with 50 U/ml IFN-γ at 37° C., LPS-induced (30 μg/ml LPS-B, Bacto Lab., Difco, Detroit, Mich., added to spleen cells for 5 days at 37° C.) B cell blasts from C57BL/6 mice (LPS) or EL4 cell (thymoma cell line of C57BL/6 origin, expressing K^b and Db). […] Virus-infected target cells were prepared by incubating 10^7 target cells with 300 HAU of nonvirulent Sendai virus in 1 ml of medium for 1 h or 12 h before labeling with ^51 Cr (28).\nInduction of primary CTL responses in vitro with peptide-loaded RMA-S cells. NWP SC of B6 unprimed mice were stimulated 1:1 (v/v) once in vitro with RMA-S cells, pre-cultured for 36 h at 22° C., only or incubated with 50 μM A16 peptide or 50 μM S16 peptide. Peptide was present during the 5-day culture at 25 μM concentration. The effectors were harvested and tested on B6 mouse embryo cells (MEC) and B6 LPS-induced B cell blasts (LPS) as target cells, without or with 50 μM A16 and S16, respectively.\nPeptide titration at induction level (A) and at target level (B) of primary CTL induced by peptide-loaded RMA-S cells.\nPrimary and secondary CTL responses induced by peptide-loaded RMA-S cells. For primary CTL responses NWP SC of B6 unprimed mice were used (A and B). For secondary CTL responses NWP SC of B6 mice were primed once i.p. with non-virulent Sendai virus (C and D)."}, "target cells": {"system": "target cells", "settings": "references 26 and 12; cited from earlier work"}, "RMA cells": {"system": "RMA cells", "assay": "Induction of primary CTL responses with peptide-loaded parental RMA cells", "assay_type": "cell-based, murine", "settings": "any peptide concentration, pre-culture at 22° C. or 37° C.", "description": "as §1, §2\nBackground (medium) release was always <25% of maximal (2% Triton X-100) release. The SE of triplicate culture was always <5% specific ^51 Cr release. Cytolytic activity calculated from individual dose-response curves is expressed as lytic units per 10^6 effector cells. Calculations were performed using linear regression. […]"}, "[1]": {"system": "MHC class I molecules (H-2) on RMA and RMA-S cells", "assay": "Direct peptide binding studies with 125I-labeled S9 on RMA and RMA-S cells", "set-up": "species or system murine", "description": "RMA and RMA-S cells were cultured for 36 h at 26° C. in Iscove's medium supplemented with 2% human pooled serum. […] MHC class I molecules were immunoprecipitated using rabbit anti-H-2^b serum (29). Class I-associated peptide was quantitated by γ-spectrometry. For determination of H-2 levels 10^6 cells were iodinated using lactoperoxidase-catalyzed iodination. Subsequently cells were washed three times in PBS and lysed in TRITON X-100 lysis buffer. H-2 antigens were precipitated from equal amounts of trichloro-acetic acid (TCA)-precipitable counts (30) using rabbit anti-H-2^b serum (29). Immunoprecipitates were analysed by SDS-PAGE on 12% gels, and gels were exposed to Kodak (Rochester, N.Y.) X-AR5 (photographic film) films. Results were expressed in arbitrary units. One unit is defined as the level of cell surface H-2 per cell and peptide binding per cell, respectively on RMA cells.\nDirect peptide binding studies on RMA and RMA-S cells. […] MHC class I molecules were immunoprecipitated using rabbit anti-H-2^b serum. Class I-associated peptide was quantitated by γ-spectrometry. Results are means of duplicate experiments and shown in dpm after subtraction of normal serum control precipitates (A). In (B) 26° C. pre-cultured RMA and RMA-S cells were surface iodinated and H-2 antigens were precipitated from equal amounts of TCA-precipitable counts using rabbit anti-H-2^b serum. The amount of cell surface H-2 on RMA-S cells is depicted relative to the amount on […]. […] The amount of class I-associated peptide on RMA-S cells is depicted relative to the amount on RMA-S cells, which is set at 1 arbitrary unit. Similar results were obtained in three independent experiments."}, "Sendai virus": {"system": "Sendai virus", "settings": "reference 12, cited from earlier work"}, "HLA-A2.1": {"target": "T1, HLA-A2.1 (Homo sapiens, UniProt P04439)", "T1 construct": "detected by antibody BB7.2", "T1 sequence (P04439 25-365)": "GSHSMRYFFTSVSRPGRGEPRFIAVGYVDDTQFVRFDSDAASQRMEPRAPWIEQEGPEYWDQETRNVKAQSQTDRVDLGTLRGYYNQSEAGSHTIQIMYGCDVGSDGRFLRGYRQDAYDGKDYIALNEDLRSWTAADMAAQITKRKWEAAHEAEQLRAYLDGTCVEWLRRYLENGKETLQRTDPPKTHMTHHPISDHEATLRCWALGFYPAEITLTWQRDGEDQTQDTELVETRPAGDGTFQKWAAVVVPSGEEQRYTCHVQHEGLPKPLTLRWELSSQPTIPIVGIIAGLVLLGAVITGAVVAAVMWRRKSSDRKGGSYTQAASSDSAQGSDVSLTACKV", "T1 sequence (P61769 21-119 partner)": "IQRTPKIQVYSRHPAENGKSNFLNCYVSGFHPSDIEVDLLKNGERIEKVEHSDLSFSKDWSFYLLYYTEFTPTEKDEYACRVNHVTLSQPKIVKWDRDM", "assay": "Peptide binding to HLA-A2.1 on (174.CEM) T2 cells", "settings": "200 μg/ml peptide, BB7.2 immunofluorescence", "description": "Of this suspension 40 μl was put into a V bottomed 96 well plate (Greiner GmbH, Frickenhausen, Germany: 651101) together with 10 μl of the individual peptide dilutions (of 1 mg/ml). […] After a centrifuge round of 1200 rpm the pellet was resuspended in 50 μl of saturating amounts of HLA-A2.1 specific mouse monoclonal antibody BB7.2 for 30 minutes at 4° C."}, "[2]": {"settings": "700 nM 125I-S9, 1 h, 26° C., FIG. 4B"}},
  "note": "Where two headings read alike, the source gives them in different places.",
  "data": [
    {"molecule": "CC(C)C[C@H](NC(=O)[C@@H](N)CC(C)C)C(=O)NCC(=O)N[C@@H](CCCNC(=N)N)C(=O)N[C@@H](CC(N)=O)C(=O)N[C@@H](CO)C(=O)N[C@@H](Cc1ccccc1)C(=O)N[C@@H](CCC(=O)O)C(=O)N[C@H](C(=O)O)C(C)C", "note": "[A8]", "values": [
      {"measurement": "peptide concentration sufficient for target cell sensitization", "setting": "T2 cells", "value": 20, "unit": "ng/mL"},
      {"measurement": "Generation of CTL response against autologous peptide in vitro", "setting": "174CEM.T2 cells", "value": "possible to generate a CTL response against an autologous peptide"}
    ]},
    {"molecule": "CDSGPSNTPPEIHPW (CDSGPSNTPPEIHPVV) [A16]", "values": [
      {"measurement": "Induction of primary CTL response by peptide-loaded RMA-S cells", "setting": "RMA-S cells", "value": "Primary CTL responses could be induced"},
      {"measurement": "Sensitization of target cells for lysis by CTL", "setting": "target cells", "value": "sensitize target cells for lysis by a CTL clone"}
    ]},
    {"molecule": "FAPGNYPAL [S9, Sendai virus nucleoprotein peptide of 9 aa]", "values": [
      {"measurement": "minimally required concentration for primary response induction by peptide-loaded RMA-S cells", "setting": "RMA-S cells; FIG. 3A and B", "value": 1, "unit": "µM"},
      {"measurement": "Induction of primary CTL response by peptide-loaded RMA-S cells", "setting": "RMA-S cells", "value": "primary response was obtained only by stimulation of T cells with peptide-loaded RMA-S cells"},
      {"measurement": "Induction of primary CTL response by peptide-loaded RMA cells", "setting": "RMA cells", "value": "non-stimulatory"},
      {"measurement": "difference in peptide binding per cell between RMA and RMA-S cells", "setting": "[1]; [2]", "value": 2.5, "unit": "fold"},
      {"measurement": "peptide binding per H-2 molecule on RMA-S cells versus RMA cells", "setting": "[1]; [2]", "value": "tenfold higher"},
      {"measurement": "peptide concentration giving comparable binding, on RMA-S (26° C.)", "setting": "[1]; comparable to RMA at 1 μM, FIG. 4A", "value": 1, "unit": "nM"},
      {"measurement": "peptide concentration giving comparable binding, on RMA (26° C.)", "setting": "[1]; comparable to RMA-S at 1 nM, FIG. 4A", "value": 1, "unit": "µM"},
      {"measurement": "amount of peptide bound to RMA cells at 20 μM", "setting": "[1]; compared with RMA-S cells at 1 μM", "value": "did not reach the amount of peptide bount to RMA-S cells observed at 1 μM"}
    ]},
    {"molecule": "HGEFAPGNYPALWSYA [S16]", "values": [
      {"measurement": "Induction of primary CTL response by peptide-loaded RMA-S cells", "setting": "RMA-S cells", "value": "Primary CTL responses could be induced"},
      {"measurement": "Induction of CTL memory in vivo by vaccination with peptide", "setting": "Sendai virus", "value": "induces CTL memory in vivo"},
      {"measurement": "Protection against lethal Sendai virus infection", "setting": "Sendai virus", "value": "induce protective immunity against a lethal Sendai virus infection"},
      {"measurement": "Protection against lethal Sendai virus infection", "setting": "Sendai virus; listed as Sendai virus 16-mer peptide", "value": "protection against otherwise lethal Sendai virus doses"},
      {"measurement": "Sensitization of target cells for lysis by CTL", "setting": "target cells", "value": "sensitize target cells for lysis by specific H-2K^b -restricted CTL"}
    ]},
    {"molecule": "RMPEAAPPV [D6]", "values": [
      {"measurement": "Binding to HLA-A2.1", "setting": "HLA-A2.1", "value": "bind to the HLA-A2.1 molecule"}
    ]}
  ]
}
